In patent publication US9386769B2 (HUNAN RESEARCH INSTITUTE OF CHEMICAL INDUSTRY CO., LTD., priority 2011, dated 2016):
Read-outs that look alike come from different tables or passages of the source.

Key:
Aphis fabae = test: Insecticidal activity against Aphis fabae, dipping of horsebean seedlings; format: in vivo; settings: 24 h
Experimental: Bioassay method: Stock solution of every test compound was prepared in an appropriate solvent such as N,N-dimethylformamide, and a small amount of Tween 80 was added as emulsification agent, then diluted to the required test concentrations with distilled water, using the control group tested with distilled water only. More than 20 adults of Aphis fabae were transferred to newly unearthed horsebean seedlings and 24 hr later, horsebean seedlings with Aphis fabae were dipped in the test solution for 5 s, then allowed to dry with filter paper, transplanted to the absorbent sponge and covered with a glass tube, then kept in a room for normal cultivation. Each assay contained three replications, and results were averaged. Mortality was assessed 24 hr after the treatment. The activity was rated to A, B, C or D according to the rating system in Example 22.

Marssonina coronaria = test: Fungicidal activity against Marssonina coronaria; format: cell-based; settings: 25 mg/L
Experimental: (§1) Bioassay method: Stock solution of every test compound was prepared in an appropriate solvent such as N,N-dimethylformamide (DMF), and then diluted to the required test concentrations with sterile water containing 0.1% Tween 80; Pipetted 3 mL of test solution to 27 mL of potato dextrose agar (PDA) medium at 45° C. and poured into a Petri dish to prepare a plate after shaking thoroughly; 6 mm of diameter of fungi cake from the edge of 7-day-old […] colony was inoculated on the central of the plate, wherein mycelium facing down, and cultured in the culture tank at 28° C. The diameter of fungi spread was calculated 4 days later using the control group tested with the diluent only. Test was run 4 times. Data were subjected to EXCEL statistical software analysis and the growth inhibition of the tested compound was calculated according to the corresponding control, the activity was rated on the basis of percentage of growth inhibition using the following rating system: A, inhibition (%)>90; B, 90≧inhibition (%)>70; C, 70≧inhibition (%)>50; D, inhibition (%)≦50.

Sclerotinia sclerotiorum = test: Fungicidal activity against Sclerotinia sclerotiorum, mycelial growth inhibition on PDA plate; format: cell-based; settings: Sclerotinia sclerotiorum; for inhibition at 2.5 µg/mL: 2.5 mg/L; for inhibition at 5 µg/mL: 5 mg/L
Experimental: as §1

Fusarium oxysporum = test: Fungicidal activity against Fusarium oxysporum; format: cell-based; settings: 25 mg/L
Experimental: as §1

Cercospora arachidicola = test: Fungicidal activity against Cercospora arachidicola; format: cell-based; settings: 25 mg/L
Experimental: as §1

Botrytis cinerea = test: Fungicidal activity against Botrytis cinerea, mycelial growth inhibition on PDA plate; format: cell-based; settings: Botrytis cinerea; for inhibition at 2.5 µg/mL: 2.5 mg/L; for inhibition at 5 µg/mL: 5 mg/L
Experimental: as §1
Fungicidal activities against Botrytis cinerea of compounds represented by the general formula (I) were evaluated with the corresponding method in Example 18, and some of the test results are shown in Table 6 to Table 8.

[1] = tested on: Alternaria solani, Fusarium oxysporum, Marssonina coronaria, Sphaceloma ampelinum, Apple canker, Cercospora arachidicola and Alternaria mali; test: Fungicidal activities against several pathogens (Example 21), comparison with Procymidone; format: cell-based; settings: several pathogens of Example 21
Experimental: as §1

Sphaceloma ampelinum = test: Fungicidal activity against Sphaceloma ampelinum; format: cell-based; settings: 25 mg/L
Experimental: as §1

Alternaria mali = test: Fungicidal activity against Alternaria mali; format: cell-based; settings: 25 mg/L
Experimental: as §1

Alternaria alternata = test: Fungicidal activity against Alternaria alternata, mycelial growth inhibition on PDA plate; format: cell-based; settings: Alternaria alternata
Experimental: as §1
Fungicidal activities against Alternaria alternata of compounds represented by the general formula (I) were evaluated with the corresponding method in Example 18, and some of the test results are shown in Table 9 to Table 10.

Alternaria solani = test: Fungicidal activity against Alternaria solani; format: cell-based; settings: 25 mg/L
Experimental: as §1

[2] = read-out: activities against Aphis fabae (mortality)
[3] = Table 4, read-out: activities against Sclerotinia sclerotiorum (growth inhibition)
[4] = Table 5, read-out: activities against Sclerotinia sclerotiorum (growth inhibition)
[5] = Table 7, read-out: activities against Botrytis cinerea (growth inhibition)
[6] = Table 8, read-out: activities against Botrytis cinerea (growth inhibition)

`CCN(Cc1cnc(Cl)s1)c1nc(OC)ccc1[N+](=O)[O-]` [Compound 05, 6-methoxy-N-((2-chlorothiazole-5-yl)methyl)-N-ethyl-3-nitropyridin-2-amine] showed a mortality at 500 µg/mL (Aphis fabae; read-out: activities against Aphis fabae (mortality rating)) of over 90%, a mortality at 6.25 µg/mL (Aphis fabae; [2]) of 12.7% and a mortality at 25 µg/mL (Aphis fabae; [2]) of 46.5%. The mortality at 100 µg/mL (Aphis fabae; [2]) was 87.5%, the “activity against Marssonina coronaria” value (Marssonina coronaria) was 78% and the inhibition at 0.1562 µg/mL (Sclerotinia sclerotiorum; 0.1562 mg/L, Table 5, read-out: activities against Sclerotinia sclerotiorum (growth inhibition)) was 63%. It also gave an inhibition at 0.3125 µg/mL (Sclerotinia sclerotiorum; 0.3125 mg/L, Table 5, read-out: activities against Sclerotinia sclerotiorum (growth inhibition)) of 63%, an inhibition at 0.625 µg/mL (Sclerotinia sclerotiorum; 0.625 mg/L, Table 5, read-out: activities against Sclerotinia sclerotiorum (growth inhibition)) of 68% and an inhibition at 1.25 µg/mL (Sclerotinia sclerotiorum; 1.25 mg/L, Table 4, read-out: activities against Sclerotinia sclerotiorum (growth inhibition)) of 95%. It also gave an inhibition at 1.255 µg/mL (Sclerotinia sclerotiorum; 1.255 mg/L, Table 5, read-out: activities against Sclerotinia sclerotiorum (growth inhibition)) of 73%, an inhibition at 2.5 µg/mL (Sclerotinia sclerotiorum; [3]) of 99% and an inhibition at 2.5 µg/mL (Sclerotinia sclerotiorum; [4]) of 90%. The inhibition at 5 µg/mL (Sclerotinia sclerotiorum; [3]) was 100%, the inhibition at 5 µg/mL (Sclerotinia sclerotiorum; [4]) was 96% and the inhibition at 10 µg/mL (Sclerotinia sclerotiorum; 10 mg/L, Table 4, read-out: activities against Sclerotinia sclerotiorum (growth inhibition)) was 100%. The inhibition at 25 µg/mL (Sclerotinia sclerotiorum; 25 mg/L, read-out: activities against Sclerotinia sclerotiorum (growth inhibition rating)) was over 90%, the “activity against Fusarium oxysporum” value (Fusarium oxysporum) was 38% and the “activity against Cercospora arachidicola” value (Cercospora arachidicola) was 88%. It also gave an inhibition at 0.1562 µg/mL (Botrytis cinerea; 0.1562 mg/L, Table 8, read-out: activities against Botrytis cinerea (growth inhibition)) of 78%, an inhibition at 0.3125 µg/mL (Botrytis cinerea; 0.3125 mg/L, Table 8, read-out: activities against Botrytis cinerea (growth inhibition)) of 84% and an inhibition at 0.625 µg/mL (Botrytis cinerea; 0.625 mg/L, Table 8, read-out: activities against Botrytis cinerea (growth inhibition)) of 88%. It also gave an inhibition at 1.25 µg/mL (Botrytis cinerea; 1.25 mg/L, Table 7, read-out: activities against Botrytis cinerea (growth inhibition)) of 89%, an inhibition at 1.255 µg/mL (Botrytis cinerea; 1.255 mg/L, Table 8, read-out: activities against Botrytis cinerea (growth inhibition)) of 94% and an inhibition at 2.5 µg/mL (Botrytis cinerea; [5]) of 92%. For the same compound, the inhibition at 2.5 µg/mL (Botrytis cinerea; [6]) was 98%, the inhibition at 5 µg/mL (Botrytis cinerea; [5]) was 97% and the inhibition at 5 µg/mL (Botrytis cinerea; [6]) was 100%. The inhibition at 10 µg/mL (Botrytis cinerea; 10 mg/L, Table 7, read-out: activities against Botrytis cinerea (growth inhibition)) was 100%, the inhibition at 25 µg/mL (Botrytis cinerea; 25 mg/L, read-out: activities against Botrytis cinerea (growth inhibition rating)) was over 90% and the “fungicidal activity compared with the commercial fungicide Procymidone” value [1] was “better than or equal to that of the commercial fungicide Procymidone”. For the same compound, the “activity against Sphaceloma ampelinum” value (Sphaceloma ampelinum) was 93%, the “activity against Alternaria mali” value (Alternaria mali) was 82% and the inhibition at 2.5 µg/mL (Alternaria alternata; 2.5 mg/L, read-out: activities against Alternaria alternata (growth inhibition)) was 45%. It also gave an inhibition at 5 µg/mL (Alternaria alternata; 5 mg/L, read-out: activities against Alternaria alternata (growth inhibition)) of 75%, an inhibition at 10 µg/mL (Alternaria alternata; 10 mg/L, read-out: activities against Alternaria alternata (growth inhibition)) of 81% and an inhibition at 25 µg/mL (Alternaria alternata; 25 mg/L, read-out: activities against Alternaria alternata (growth inhibition rating)) of 70 to 90%. The “activity against Alternaria solani” value (Alternaria solani) was 87%.
